The record followed here is patent US12459891B2, “1-[1-(4-benzyloxy-3,5-difluoro-benzoyl)-4-fluoro-pyrrolidine-2-carbonyl]-pyrrolidine-2-carbonitrile” (ACCURE THERAPEUTICS, S.L., priority 2020, dated 2025).

One data set has as its system Caco-2 cells. The data set can be described thus: Caco-2 permeability assay (apical to basal). The class given is in vitro ADME, human. Particulars: 50 μM, 2 hours at 37° C. The source says:
Caco-2 cells are widely used as an in vitro model for prediciting human drug absorption. The Caco-2 cell line is derived from human colorectal carcinoma, and when cultured, the cells spontaneously differentiate into monolayers of polarized enterocytes.
Experiments were done using the CacoReay permeability kit (ReadyCell, Barcelona, Spain).
On the same week of the reception of the kit, the shipping medium of the cells was liquefied according to user's manual provided with the kit, after which the shipping medium was replaced with fresh Dulbecco's Modified Eagle's Medium (DMEM, low-glucose).
Three days later, equivalent to day 20 of cell culture, the quality of the barrier system and the presence of tight junctions between the cells was checked by measuring the trans endothelial electrical resistance (TEER) of the cell barrier. […]
For the transport experiments (apical to basal), the cells were incubated with the solutions containing the compounds for 2 hours at 37° C. Afterwards, the content of the compartments was recovered and analyzed by HPLC (Column C18 Sunfire 100 mm×4.6 mm, […], 100 Å, Waters; Flow rate 1 mL/min; Gradient 0-100% B in 8 min A=0.045% Trifluoracetic acid in H2O and B 0.036% Trifluoracetic acid in acetonitrile, detection at 220 nm). […]
In the Caco-2 permeability assay, the percentage of transport (T %) for the compounds was calculated according to the following equation: […]
(In general: Passage across Caco-2 layers is used to estimate intestinal permeability.)

In another data set the target is T1, 5-HT1A receptor (Homo sapiens, UniProt P08908).
T1 construct: purchased Cerep/Eurofins SafetyScreen44 panel
T1 sequence (P08908 1-422): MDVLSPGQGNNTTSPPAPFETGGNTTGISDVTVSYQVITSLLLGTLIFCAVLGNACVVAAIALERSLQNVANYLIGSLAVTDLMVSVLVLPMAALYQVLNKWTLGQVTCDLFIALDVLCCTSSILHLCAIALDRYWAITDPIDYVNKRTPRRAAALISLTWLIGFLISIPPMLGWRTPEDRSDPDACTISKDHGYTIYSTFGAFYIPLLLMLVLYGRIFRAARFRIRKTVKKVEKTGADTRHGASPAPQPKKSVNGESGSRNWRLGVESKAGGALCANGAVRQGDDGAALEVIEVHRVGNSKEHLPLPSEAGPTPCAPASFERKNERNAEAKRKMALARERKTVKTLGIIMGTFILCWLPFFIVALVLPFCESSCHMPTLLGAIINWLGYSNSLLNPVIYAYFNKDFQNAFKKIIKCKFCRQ
Kind of data set: Selectivity profile, radioligand binding (SafetyScreen44 panel). Particulars: 100 μM compound (1% DMSO); read-out: % inhibition of control specific binding. How it is done:
The experiment was performed using the SafetyScreen44® panel from Cerep/Eurofins. Compounds were tested at a concentration 100 μM (in 1% DSMO).
Compound binding was calculated as a percentage inhibition of the binding of a radioactively labeled ligand specific for each target.
The results are expressed as a percent inhibition of control specific binding
[formula] obtained in the presence of tested compounds.
Results showing an inhibition higher than 50% are considered to represent significant effects of the test compounds.

Turning to `COc1cc(C(=O)N2CC(F)(F)C[C@H]2C(=O)N2CCC[C@H]2C#N)cc(OC)c1OCc1ccccc1` [Comp Ex. 3, (S)-1-((2S)-1-(4-(benzyloxy)-3,5-dimethoxybenzoyl)-4,4-difluoropyrrolidine-2-carbonyl)pyrrolidine-2-carbonitrile], the “% T (percentage of transport), Caco-2” value in the data set with Caco-2 cells turned out to be 5.7%. For the same molecule, the inhibition (in general, the drop in the measured response relative to a control, in per cent) at 100 µM on 5-HT1A receptor was 64.6%.
For `N#C[C@@H]1CCCN1C(=O)[C@@H]1C[C@@H](F)CN1C(=O)c1cc(F)c(OCc2ccccc2)c(F)c1` [Example 1, (S)-1-((2S,4R)-1-(4-(benzyloxy)-3,5-difluorobenzoyl)-4-fluoropyrrolidine-2-carbonyl)pyrrolidine-2-carbonitrile], in that order: 45% and -6.3%.
